We go through one molecule from PMC12010006, “Subnanomolar MAS-related G protein-coupled receptor-X2/B2 antagonists with efficacy in human mast cells and disease models” (Signal Transduction and Targeted Therapy, 2025).

Positions of bridges follow the written chain, without caps; N, C: chain ends. Residues, ends and D or L forms follow the SMILES beside them.

Experiment [1] has as its target T1, MRGPRX2 (Homo sapiens, UniProt Q96LB1).
T1 sequence (Q96LB1 1-330): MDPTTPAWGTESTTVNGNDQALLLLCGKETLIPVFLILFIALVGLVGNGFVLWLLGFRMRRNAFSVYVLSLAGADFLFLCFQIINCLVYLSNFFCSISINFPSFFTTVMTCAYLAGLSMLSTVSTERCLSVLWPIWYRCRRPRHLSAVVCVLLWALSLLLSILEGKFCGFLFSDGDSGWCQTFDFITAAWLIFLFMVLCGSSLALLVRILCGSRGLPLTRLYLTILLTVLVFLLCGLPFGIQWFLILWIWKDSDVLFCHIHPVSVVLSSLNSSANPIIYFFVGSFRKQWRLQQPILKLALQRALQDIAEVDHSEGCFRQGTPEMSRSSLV
Briefly: β-arrestin recruitment assay (antagonist mode), β-arrestin-CHO cells recombinantly expressing MRGPRX2. Type of experiment: cell-based. Set-up: expressed in transfected cells.

For experiment [2], the target named is T1, MRGPRX2. Briefly: TRUPATH Gαq dissociation assay, LN229 cells expressing MRGPRX2. Conditions: read-out: EC50 of agonist, Gαq dissociation. Set-up: expressed in transfected cells; host or cells: LN229 human glioblastoma cells; plasmid pLXSN-MRGPRX2 (Addgene #213960). Format: cell-based. How it is done: (§1) Fig. 3 Biological characterization of PSB-172656. a Selectivity of PSB-172656 (100 nM) for MRGPRX2 over MRGPRX1, MRGPRX3, and MRGPRX4 measured in β-arrestin assays utilizing β-arrestin-CHO cells with recombinant expression of the respective receptor. MRGPRX1 was activated by BAM-22P (8.5 µM),[19] MRGPRX2 was activated by CST-14 (1 µM), MRGPRX3 was activated by PSB-20294 (10 µM), MRGPRX4 was activated by PSB-18061 (2.6 µM).[44] Data represent mean values ± SEM of 3-4 biological replicates, performed in duplicates. […] Data are means ± SEM of 3 biological replicates, in duplicates. Statistical significance was determined by one-way ANOVA (Tukey’s multiple comparison) test (ns P > 0.05). […] Data are means ± SEM of 3 biological replicates, performed in duplicates. e Shift assay to determine inhibition type of PSB-172656 versus CST-14. […] Extrapolated data were not used for analysis but only shown for a comprehensive view. f Schild plot for the effect of PSB-172656 on the concentration-response curves for CST-14. […]
(§2) To further investigate PSB-172656 signaling, direct activation of the relevant G protein subunits, Gαq and Gαi1,[32] was studied. This was assessed using G protein dissociation assays and LN229 cells stably overexpressing MRGPRX2 while transiently expressing the investigated G protein (Fig. 3c, d).[47]

For experiment [3], the target named is T1, MRGPRX2. Kind of experiment: TRUPATH Gαi1 dissociation assay, LN229 cells expressing MRGPRX2. Format: cell-based. The arrangement: expressed in transfected cells; host or cells: LN229 human glioblastoma cells; plasmid pLXSN-MRGPRX2 (Addgene #213960). To be noted: read-out: EC50 of agonist, Gαi1 dissociation. How it is done:
as §1, §2

Experiment [4] has as its target T2, mouse MRGPRB2 (Mus musculus, UniProt Q3KNA1).
T2 construct: expressed in transfected cells; host or cells: 1321N1 astrocytoma cells; plasmid pLVX-IRES-MRGPRB2-mCherry (Addgene #213961)
T2 sequence (Q3KNA1 1-338): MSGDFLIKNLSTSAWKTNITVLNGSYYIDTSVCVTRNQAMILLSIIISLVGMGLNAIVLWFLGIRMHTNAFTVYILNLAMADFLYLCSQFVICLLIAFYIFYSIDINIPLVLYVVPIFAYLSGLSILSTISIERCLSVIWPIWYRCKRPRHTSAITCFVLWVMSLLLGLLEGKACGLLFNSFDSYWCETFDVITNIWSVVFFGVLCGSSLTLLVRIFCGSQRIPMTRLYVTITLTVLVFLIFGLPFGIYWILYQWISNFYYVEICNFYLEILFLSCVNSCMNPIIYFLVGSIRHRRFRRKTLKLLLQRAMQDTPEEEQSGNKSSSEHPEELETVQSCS
The arrangement: method as in PMID 38184723. Conditions: cited from earlier work.

Experiment [5] has as its target T1, MRGPRX2. Kind of experiment: Ca2+ mobilization assay, LN229 cells overexpressing MRGPRX2. Format: cell-based. Set-up: expressed in transfected cells; host or cells: LN229 human glioblastoma cells; plasmid pLXSN-MRGPRX2 (Addgene #213960). How it is done: Glioblastoma LN229-MRGPRX2 stably expressing MRGPRX2 (produced by retroviral transfection) were seeded into black sterile 96-well microplates at a density of 5 × 10^4 cells/well in 200 µL of DMEM/F12-Nut Mix medium, supplemented with 10% FCS, 100 U/mL of penicillin 100 µg/mL of streptomycin, and 200 µg/mL of G418 and incubated for 18–22 h.
The next day Fluo-4 AM Solution (1 mM) (Thermo Fisher Scientific) was prepared and used to prepare cell loading dye solution consisting of 4970 µL of Hank’s Buffered Saline Solution (HBSS) buffer, 15 µL of 20% Pluronic-F and 15 µL of 1 mM Fluo-4 AM. Next, the cell medium was removed and exchanged for 40 µL of dye solution per well (final concentration of Fluo-4 AM: 3 µM). The cell plate was incubated for 60 min in the dark at room temperature, then the dye solution was removed and replaced by 189 µL HBSS. Subsequently, 1 µL of antagonist diluted in DMSO was added and incubated for 30 min at room temperature and in the dark (final DMSO concentration 0.5%, v/v). CST-14 or another agonist prepared in HBSS as well as carbachol (final concentration 100 µM) were pipetted (10 µL) using a FlexStation® 3 Multi-Mode Microplate Reader. For the determination of baseline fluorescence, HBSS buffer containing solvent of the investigated compound was used. Fluorescence was measured for 120 intervals of 1 s (number of flashes: 10) at a wavelength of 525 nm (excitation 485 nm) using the SoftMax® Pro5.1 Microplate Data Acquisition & Analysis Software. Three independent experiments were performed in duplicates. Measurements are provided in relative fluorescence units and normalized to the maximal effect of CST-14.

As for `C[C@@H](O)[C@@H]1NC(=O)[C@H](CCCCN)NC(=O)[C@H](Cc2c[nH]c3ccccc23)NC(=O)[C@H](Cc2ccccc2)NC(=O)[C@H](Cc2ccccc2)NC(=O)[C@H](CC(N)=O)NC(=O)[C@H](CCCCN)NC(=O)[C@@H](NC(=O)[C@@H]2CCCN2)CSSC[C@@H](C(=O)N[C@@H](CCCCN)C(=O)O)NC(=O)[C@H](CO)NC(=O)[C@H](CO)NC(=O)[C@H](Cc2ccccc2)NC1=O` [CST-14, reference compound] (H-PCKNFFWKTFSSCK-OH; disulfide 2-13; N-terminus and C-terminus assumed), the “EC80 of agonist, β-arrestin assay” value in experiment [1] turned out to be 1000 nM. In addition, the EC50 was 483 nM in experiment [1] (agonist concentration-response curve, read-out: EC50 of agonist, β-arrestin assay); 283 ± 45 nM in experiment [1] (without antagonist, read-out: EC50 of CST-14, shift assay); 499 ± 207 nM in experiment [2]; 113 ± 16 nM in experiment [3]; 452 ± 49 nM in experiment [5] (agonist concentration-response curve). Further, the “EC80 of agonist at MRGPRB2, Ca2+ assay” value in experiment [4] was 2000 nM. For the same molecule, the “EC80 of agonist, Ca2+ assay” value in experiment [5] is given as 800 nM.
